Test results: patent publication US4833156A, “Treating amnesia with a pyrrolidone derivative” (Kirin Beer Kabushiki Kaisha, priority 1987, dated 1989)

Columns and labels:
[1] = system: proline specific endopeptidase; test: Inhibition of proline specific endopeptidase activity (residual peptidase activity); format: biochemical; conditions: inhibitor concentration not given
Experimental: The inhibitory effects of the compounds represented by the formula (I) were determined by measuring the residual peptidase activity. The experimental procedure was agreed with the method by Tadashi Yoshimoto and Daisuke Tsuru: Tanpakushitsu, Kakusan and Koso, 29 (2), 127 (1984).

[2] = system: scopolamine induced amnesia in rats; test: Rat delayed-matching test (scopolamine-induced amnesia); format: in vivo, rat (SD, male, 150 to 300 g); conditions: for remission of scopolamine induced amnesia: oral, 20 min before test, (-)-scopolamine hydrochloride 0.06 mg/kg s.c., delay times 0.1, 4, 16, 32 s, FIG. 3 and FIG. 4
From the text: An apparatus equipped with two lever switches on the respective sides of the front face of the inside of an operant experimental box (25×31×33 cm), red lamps just above respective levers and a white lamp at a further upper position was used for the experiment. A rat bred under restricted feeding (SD, male, 150 to 300 g) was placed in the apparatus. Either one of the red lamps arranged on the right and left sides was lit for 5 seconds, and, at a specific time (delayed time) after it was turned off, the white lamp at the center was lit. The system of the apparatus was so set that if the lever which was at the side of the red lamp having lit was pushed, a feed pellet (ca. 50 mg) was given as a correct choice, and if another lever was pushed no pellet was given as an incorrect choice. After the training had been conducted to ensure that, in the test of delay time being 0.1 sec, the correct choice rate was maintained at the level of 80% or more for three consecutive days, the test was conducted. In the test, delay times were set at 0.1, 4, 16 and 32 seconds, and, at each of the delay times, 6 runs were conducted at random (24 runs in total, 1 run/minute). […] N-(4'-chlorobenzenesulfonyl)-2-pyrrolidone and aniracetam were administered orally in the form of suspensions in 0.3% Tween 80 at 20 minutes before test.

[3] = system: cycloheximide (CXM)-induced amnesia in mice; test: Mouse step-down test (cycloheximide-induced amnesia); format: in vivo, mouse (ddY, male, 5 to 6 week old); conditions: conclusion for the mouse step-down test
Experimental: The test was carried out in accordance with the method described by Nabeshima et al.: Psychopharmacology, (1986) 89, 334-337. That is, a wooden platform (4×4×4 cm) was placed in the center on a floor of a stainless steel grid (30×30 cm), and the whole apparatus was surrounded with clear acrylic resin plates. In acquisition test, a mouse (ddY, male, 5 to 6 week old) was placed on the platform, and electric stimulus was applied for 20 seconds immediately after the mouse stepped down on the grid. Then the mouse was taken out of the apparatus and cycloheximide hydrochloride (30 mg/kg) was administered subcutaneously in order to induce amnesia. In the retention test, the mouse was again placed on the platform, and the time before the mouse stepped down on the grid was measured as the step-down latency. N-(4'-chlorobenzenesulfonyl)-2-pyrrolidone and aniracetam were individually suspended in 0.3% Tween 80 and administered orally at 20 minutes before acquisition test.

[4] = Acute toxicity, oral administration to mice; format: in vivo, mouse (ddY; conditions: mouse, in vivo, ddY male mice, 7 week old
From the text: (§1) Acute toxicity was evaluted by oral administration of the compounds to ddY male mice (7 week old).

ddY male mice = test: Acute toxicity, oral administration to mice; format: in vivo, mouse (ddY; conditions: 7 week old, result in words
From the text: as §1

Row | Residual Activity [1] | Compound | remission of scopolamine induced amnesia [2] | anti-amnestic effect compared with aniracetam [3] | anti-amnestic effect compared with aniracetam ([2]; conclusion for the rat delayed-matching test) | LD50 [4] [mg/kg] | safety (ddY male mice)
1 | 89.5 | COc1ccc(C(=O)N2CCCC2=O)cc1 [Aniracetam, aniracetam, reference compound] | did not remitted at all scopolamine induced amnesia |  |  |  | 
2 | 47.4 | Cc1ccc(S(=O)(=O)N2CCCC2=O)cc1 [Synthetic Example 1,2, N-(4'-toluenesulfonyl)-2-pyrrolidone] |  |  |  |  | 
3 | 51.3 | O=C1CCCN1S(=O)(=O)c1ccccc1 [Synthetic Example 5,6, N-benzenesulfonyl-2-pyrrolidone] |  |  |  |  | 

Row | Compound | Residual Activity [1] | remission of scopolamine induced amnesia [2] | anti-amnestic effect compared with aniracetam [3] | anti-amnestic effect compared with aniracetam ([2]; conclusion for the rat delayed-matching test) | LD50 [4] [mg/kg] | safety (ddY male mice)
4 | O=C1CCCN1S(=O)(=O)c1ccc(Cl)cc1 [Synthetic Example 3,4, N-(4'-chlorobenzenesulfonyl)-2-pyrrolidone] | 51.3 | showed remission of scopolamine induced amnesia at several dosages and delay times | exhibited an anti-amnestic effect and was more effective than aniracetam | exhibited an anti-amnestic effect and was more effective than aniracetam | ≥ 2000 | High level of safety
